Measurements taken from patent US20070213359A1 (ACADIA Pharmaceuticals Inc., priority 2005, published 2007).

biological target: Ghrelin receptor (Homo sapiens, UniProt Q92847); experiment: Receptor Selection and Amplification Technology (R-SAT) assay; format: cell-based; parameters: expressed in transfected cells; host or cells: NIH3T3; settings: not given
Sequence (Q92847 whole entry): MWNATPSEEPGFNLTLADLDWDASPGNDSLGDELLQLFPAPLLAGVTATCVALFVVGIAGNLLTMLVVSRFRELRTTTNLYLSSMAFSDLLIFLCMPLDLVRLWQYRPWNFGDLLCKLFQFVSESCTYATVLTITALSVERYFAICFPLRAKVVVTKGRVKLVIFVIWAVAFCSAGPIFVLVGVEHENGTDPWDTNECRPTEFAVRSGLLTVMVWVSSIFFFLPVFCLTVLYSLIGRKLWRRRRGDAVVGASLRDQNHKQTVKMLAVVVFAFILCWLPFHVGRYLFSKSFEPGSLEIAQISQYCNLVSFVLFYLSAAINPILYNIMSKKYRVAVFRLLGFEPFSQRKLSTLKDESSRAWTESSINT

Structure (SMILES)	RSAT Eff(%)
CC(=O)c1cn(CCCN2CCC(N3C(=O)Cc4ccccc43)CC2)c2c(C#N)cccc12	133
COc1cccc2c(C(=O)C3CC3)cn(CCCN3CCC(N4C(=O)Cc5ccccc54)CC3)c12	110
CC(=O)c1cn(CCCN2CCC(N3C(=O)Cc4ccccc43)CC2)c2c(Br)cccc12	60
CCc1cccc2c(C(C)=O)cn(CCCN3CCC(N4C(=O)Cc5ccccc54)CC3)c12	147
COc1cccc2c(C(=O)NCc3cccc(C)c3)cn(CCCN3CCC(N4C(=O)Cc5ccccc54)CC3)c12	43
CC(=O)c1cn(CCCN2CCC(N3C(=O)Cc4ccccc43)CC2)c2c(C)cccc12	69
CC(=O)c1cn(CCCN2CCC(N3C(=O)Cc4ccccc43)CC2)c2c(Cl)cccc12	28
CC(=O)c1c(C)n(CCCN2CCC(N3C(=O)Cc4ccccc43)CC2)c2c(Br)cccc12	12
COc1cccc2c(C#N)cn(CCCN3CCC(N4C(=O)Cc5ccccc54)CC3)c12	33

same assay, conditions: RSAT pIC50

Structure (SMILES)	IC50 [nM]
COc1cccc2c(C(=O)Cc3ccccc3)cn(CCCN3CCC(c4nc(-c5cccnc5)no4)CC3)c12	20
COc1cccc2c(C(C)=O)cn(CCCN3CCC(C#N)(c4ccccc4)CC3)c12	200

same assay, conditions: […]; '—' not defined (nd used separately); read-out: RSAT pIC50 (converted)

Structure (SMILES)	IC50 [nM]
COc1cccc2c(C(=O)NCc3cccc(Cl)c3)cn(CCCN3C4CCC3CC(CCc3ccc(Cl)cc3)C4)c12 (stereo not shown)	0.794
COc1cccc2c(C(=O)C3CC3)cn(CCCN3CCCN(CCc4ccccc4)CC3)c12	1.26
COc1cccc2c(C(=O)Cc3ccccc3)cn(CCCN3CCN(Cc4ccc(Cl)cc4Cl)CC3)c12	2
COc1cccc2c(C(=O)C3CC3)cn(CCCN3CCN(CCOc4ccccc4)CC3)c12	7.94
COc1cccc2c(C(=O)Cc3ccccc3)cn(CCCN3CCN(c4ncc(C(F)(F)F)cc4Cl)CC3)c12	7.94
COc1cccc2c(C(=O)NCc3cccc(C)c3)cn(CCCN3C4CCC3CC(CCc3ccccc3)C4)c12 (stereo not shown)	10
COc1cccc2c(C(=O)NCC(C)C)cn(CCCN3CCC4(CC3)CC(=O)c3ccccc3O4)c12	12.6
COc1cccc2c(C(=O)NCC(C)C)cn(CCCN3CCCN(Cc4ccccc4Cl)CC3)c12	15.8
COc1cccc2c(C(=O)NCC(C)C)cn(CCCN3C4CCC3CC(CCc3ccccc3)C4)c12 (stereo not shown)	15.8
COc1cccc2c(C(=O)c3ccccc3)cn(CCCN3C4CCC3CC(CCc3ccc(Cl)cc3)C4)c12 (stereo not shown)	15.8
COc1cccc2c(C(=O)C3CC3)cn(CCCNCCOc3ccccc3)c12	15.8
COc1cccc2c(C(=O)NCc3cccc(C)c3)cn(CCCN3CCC(c4nc(-c5ccncc5)no4)CC3)c12	15.8
COc1cccc2c(C(=O)NCc3cccc(Cl)c3)cn(CCCN3CCC(c4nc(-c5cccnc5)no4)CC3)c12	20
COc1cccc2c(C(=O)NCc3cccc(Cl)c3)cn(CCCN3CCCN(Cc4ccccc4Cl)CC3)c12	20
COc1cccc2c(C(=O)C3CC3)cn(CCCN3CCC(c4nc(-c5ccncc5)no4)CC3)c12	20
CC(=O)c1cn(CCCN2CCC(N3C(=O)Cc4ccccc43)CC2)c2c(C#N)cccc12	20
COc1cccc2c(C(=O)C3CC3)cn(CCCNC3Cc4ccccc4C3)c12	25.1
COc1cccc2c(C(=O)NCc3cccc(C)c3)cn(CCCN3C4CCC3CC(CCc3ccc(Cl)cc3)C4)c12 (stereo not shown)	25.1
COc1cccc2c(C(=O)Cc3ccccc3)cn(CCCN3CCC(c4nc(-c5ccncc5)no4)CC3)c12	25.1

Structure (SMILES)	IC50 [nM]
COc1cccc2c(C(=O)c3ccccc3)cn(CCCN3CCC(c4nc(-c5ccncc5)no4)CC3)c12	25.1
COc1cccc2c(C(=O)NCC(C)C)cn(CCCN3CCN(Cc4ccc(Cl)cc4Cl)CC3)c12	25.1
COc1cccc2c(C(=O)NCC(C)C)cn(CCCNC3Cc4ccccc4C3)c12	31.6
COc1cccc2c(C(=O)NCC(C)C)cn(CCCN3CCN(c4ncc(C(F)(F)F)cc4Cl)CC3)c12	31.6
COc1cccc2c(C(=O)NCc3cccc(Cl)c3)cn(CCCN3CCC(c4nc(-c5ccncc5)no4)CC3)c12	31.6
COc1cccc2c(C(=O)NCc3cccc(C)c3)cn(CCCN3CCN(c4ncc(C(F)(F)F)cc4Cl)CC3)c12	39.8
COc1cccc2c(C(=O)C3CC3)cn(CCCN3CCC(c4nc(-c5cccnc5)no4)CC3)c12	39.8
COc1cccc2c(C(=O)c3ccccc3)cn(CCCN3CCC(c4nc(-c5cccnc5)no4)CC3)c12	39.8
COc1cccc2c(C(=O)C3CC3)cn(CCCN3CCC(N4C(=O)Cc5ccccc54)CC3)c12	39.8
COc1cccc2c(C(=O)NCc3cccc(Cl)c3)cn(CCCN3CCN(c4ncc(C(F)(F)F)cc4Cl)CC3)c12	39.8
CC(=O)c1cn(CCCN2CCC(c3nc(-c4cccnc4)no3)CC2)c2c(C#N)cccc12	50.1
COc1cccc2c(C(=O)Cc3ccccc3)cn(CCCNCCOc3ccccc3)c12	50.1
CC(=O)c1cn(CCCNCCOc2ccccc2)c2c(Br)cccc12	50.1
COc1cccc2c(C(=O)Cc3ccccc3)cn(CCCNC3Cc4ccccc4C3)c12	50.1
COc1cccc2c(C(=O)NCc3cccc(Cl)c3)cn(CCCN3CCC4(CC3)CC(=O)c3ccccc3O4)c12	63.1
COc1cccc2c(C(=O)NCC(C)C)cn(CCCN3CCC(c4nc(-c5cccnc5)no4)CC3)c12	63.1
COc1cccc2c(C(=O)NCC(C)C)cn(CCCN3C4CCC3CC(CCc3ccc(Cl)cc3)C4)c12 (stereo not shown)	63.1
COc1cccc2c(C(=O)c3ccccc3)cn(CCCN3CCCC(Cc4ccccc4Cl)C3)c12 (stereo not shown)	63.1
COc1cccc2c(C(=O)C3CC3)cn(CCCN3C4CCC3CC(Oc3ccc(F)cc3)C4)c12 (stereo not shown)	63.1

Structure (SMILES)	IC50 [nM]
COc1cccc2c(C(=O)Cc3ccccc3)cn(CCCN3CCC4(CC3)CC(=O)c3ccccc3O4)c12	79.4
COc1cccc2c(C(=O)NCC(C)C)cn(CCCN3CCC(C(=O)c4ccccc4)CC3)c12	79.4
CC(=O)c1cn(CCCN2CCC(N3C(=O)Cc4ccccc43)CC2)c2c(Br)cccc12	100
COc1cccc2c(C(=O)NCc3cccc(C)c3)cn(CCCN3CCC(C(=O)c4ccccc4)CC3)c12	100
CCc1cccc2c(C(C)=O)cn(CCCN3CCC(N4C(=O)Cc5ccccc54)CC3)c12	100
CC(=O)c1cn(CCCN2CCCN(CCc3ccccc3)CC2)c2c(C)cccc12	100
CC(C)CC(=O)c1cn(CCCN2CCC(c3nc4c(s3)C=CCC4)CC2)c2ccccc12	126
COc1cccc2c(C(=O)NCC(C)C)cn(CCCN3CCN(CCOc4ccccc4)CC3)c12	126
CCc1cccc2c(C(C)=O)cn(CCCN3CCC4(CC3)CC(=O)c3ccccc3O4)c12	126
COc1cccc2c(C(=O)C3CC3)cn(CCCN3CCCC(Oc4ccc(Cl)cc4)C3)c12 (stereo not shown)	126
COc1cccc2c(C(=O)NCC(C)C)cn(CCCN3C4CCC3CC(CC(=O)c3ccc(Cl)cc3)C4)c12 (stereo not shown)	126
COc1cccc2c(C(=O)NCc3cccc(Cl)c3)cn(CCCN3CCC(Oc4ccccc4Cl)CC3)c12	126
COc1ccccc1C1CCN(CCCn2cc(C(=O)NCc3cccc(C)c3)c3cccc(OC)c32)CC1	126
COc1cccc2c(C(=O)NCc3cccc(C)c3)cn(CCCN3CCC4(CC3)CC(=O)c3ccccc3O4)c12	158
CC(=O)c1cn(CCCNC2Cc3ccccc3C2)c2c(C)cccc12	158
COc1cccc2c(C(=O)NCC(C)C)cn(CCCNCCOc3ccccc3)c12	158
COc1cccc2c(C(=O)C3CC3)cn(CCCN3C4CCC3CC(Oc3ccccc3Cl)C4)c12 (stereo not shown)	158
COc1cccc2c(C(=O)NCc3cccc(C)c3)cn(CCCN3CCC(N4C(=O)Cc5ccccc54)CC3)c12	2000
CC(=O)c1cn(CCCN2CCC(N3C(=O)Cc4ccccc43)CC2)c2c(C)cccc12	12600

same assay, conditions: read-out: RSAT Eff(%)

Structure (SMILES)	Emax [%]
COc1cccc2c(C(=O)NCc3cccc(Cl)c3)cn(CCCN3C4CCC3CC(CCc3ccc(Cl)cc3)C4)c12 (stereo not shown)	127
COc1cccc2c(C(=O)C3CC3)cn(CCCN3CCCN(CCc4ccccc4)CC3)c12	100
COc1cccc2c(C(=O)Cc3ccccc3)cn(CCCN3CCN(Cc4ccc(Cl)cc4Cl)CC3)c12	76
COc1cccc2c(C(=O)C3CC3)cn(CCCN3CCN(CCOc4ccccc4)CC3)c12	94
COc1cccc2c(C(=O)Cc3ccccc3)cn(CCCN3CCN(c4ncc(C(F)(F)F)cc4Cl)CC3)c12	95
COc1cccc2c(C(=O)NCc3cccc(C)c3)cn(CCCN3C4CCC3CC(CCc3ccccc3)C4)c12 (stereo not shown)	89
COc1cccc2c(C(=O)NCC(C)C)cn(CCCN3CCC4(CC3)CC(=O)c3ccccc3O4)c12	115
COc1cccc2c(C(=O)NCC(C)C)cn(CCCN3CCCN(Cc4ccccc4Cl)CC3)c12	100
COc1cccc2c(C(=O)NCC(C)C)cn(CCCN3C4CCC3CC(CCc3ccccc3)C4)c12 (stereo not shown)	86
COc1cccc2c(C(=O)c3ccccc3)cn(CCCN3C4CCC3CC(CCc3ccc(Cl)cc3)C4)c12 (stereo not shown)	94
COc1cccc2c(C(=O)C3CC3)cn(CCCNCCOc3ccccc3)c12	83
COc1cccc2c(C(=O)NCc3cccc(C)c3)cn(CCCN3CCC(c4nc(-c5ccncc5)no4)CC3)c12	121
COc1cccc2c(C(=O)NCc3cccc(Cl)c3)cn(CCCN3CCC(c4nc(-c5cccnc5)no4)CC3)c12	103
COc1cccc2c(C(=O)NCc3cccc(Cl)c3)cn(CCCN3CCCN(Cc4ccccc4Cl)CC3)c12	107
COc1cccc2c(C(=O)C3CC3)cn(CCCN3CCC(c4nc(-c5ccncc5)no4)CC3)c12	87
COc1cccc2c(C(=O)Cc3ccccc3)cn(CCCN3CCC(c4nc(-c5cccnc5)no4)CC3)c12	88
COc1cccc2c(C(=O)C3CC3)cn(CCCNC3Cc4ccccc4C3)c12	97
COc1cccc2c(C(=O)NCc3cccc(C)c3)cn(CCCN3C4CCC3CC(CCc3ccc(Cl)cc3)C4)c12 (stereo not shown)	77
COc1cccc2c(C(=O)Cc3ccccc3)cn(CCCN3CCC(c4nc(-c5ccncc5)no4)CC3)c12	137
COc1cccc2c(C(=O)c3ccccc3)cn(CCCN3CCC(c4nc(-c5ccncc5)no4)CC3)c12	98
COc1cccc2c(C(=O)NCC(C)C)cn(CCCN3CCN(Cc4ccc(Cl)cc4Cl)CC3)c12	105
COc1cccc2c(C(=O)NCC(C)C)cn(CCCNC3Cc4ccccc4C3)c12	102
COc1cccc2c(C(=O)NCC(C)C)cn(CCCN3CCN(c4ncc(C(F)(F)F)cc4Cl)CC3)c12	100
COc1cccc2c(C(=O)NCc3cccc(Cl)c3)cn(CCCN3CCC(c4nc(-c5ccncc5)no4)CC3)c12	105
COc1cccc2c(C(=O)NCc3cccc(C)c3)cn(CCCN3CCN(c4ncc(C(F)(F)F)cc4Cl)CC3)c12	80
COc1cccc2c(C(=O)C3CC3)cn(CCCN3CCC(c4nc(-c5cccnc5)no4)CC3)c12	96
COc1cccc2c(C(=O)c3ccccc3)cn(CCCN3CCC(c4nc(-c5cccnc5)no4)CC3)c12	80

Structure (SMILES)	Emax [%]
COc1cccc2c(C(=O)NCc3cccc(Cl)c3)cn(CCCN3CCN(c4ncc(C(F)(F)F)cc4Cl)CC3)c12	107
CC(=O)c1cn(CCCN2CCC(c3nc(-c4cccnc4)no3)CC2)c2c(C#N)cccc12	77
COc1cccc2c(C(=O)Cc3ccccc3)cn(CCCNCCOc3ccccc3)c12	92
CC(=O)c1cn(CCCNCCOc2ccccc2)c2c(Br)cccc12	132
COc1cccc2c(C(=O)Cc3ccccc3)cn(CCCNC3Cc4ccccc4C3)c12	103
COc1cccc2c(C(=O)NCc3cccc(Cl)c3)cn(CCCN3CCC4(CC3)CC(=O)c3ccccc3O4)c12	7.8
COc1cccc2c(C(=O)NCC(C)C)cn(CCCN3CCC(c4nc(-c5cccnc5)no4)CC3)c12	93
COc1cccc2c(C(=O)NCC(C)C)cn(CCCN3C4CCC3CC(CCc3ccc(Cl)cc3)C4)c12 (stereo not shown)	85
COc1cccc2c(C(=O)c3ccccc3)cn(CCCN3CCCC(Cc4ccccc4Cl)C3)c12 (stereo not shown)	82
COc1cccc2c(C(=O)C3CC3)cn(CCCN3C4CCC3CC(Oc3ccc(F)cc3)C4)c12 (stereo not shown)	131
COc1cccc2c(C(=O)Cc3ccccc3)cn(CCCN3CCC4(CC3)CC(=O)c3ccccc3O4)c12	98
COc1cccc2c(C(=O)NCC(C)C)cn(CCCN3CCC(C(=O)c4ccccc4)CC3)c12	114
COc1cccc2c(C(=O)NCc3cccc(C)c3)cn(CCCN3CCC(C(=O)c4ccccc4)CC3)c12	126
CC(=O)c1cn(CCCN2CCCN(CCc3ccccc3)CC2)c2c(C)cccc12	102
CC(C)CC(=O)c1cn(CCCN2CCC(c3nc4c(s3)C=CCC4)CC2)c2ccccc12	108
COc1cccc2c(C(=O)NCC(C)C)cn(CCCN3CCN(CCOc4ccccc4)CC3)c12	118
CCc1cccc2c(C(C)=O)cn(CCCN3CCC4(CC3)CC(=O)c3ccccc3O4)c12	85
COc1cccc2c(C(=O)C3CC3)cn(CCCN3CCCC(Oc4ccc(Cl)cc4)C3)c12 (stereo not shown)	37
COc1cccc2c(C(=O)NCC(C)C)cn(CCCN3C4CCC3CC(CC(=O)c3ccc(Cl)cc3)C4)c12 (stereo not shown)	128
COc1cccc2c(C(=O)NCc3cccc(Cl)c3)cn(CCCN3CCC(Oc4ccccc4Cl)CC3)c12	125
COc1ccccc1C1CCN(CCCn2cc(C(=O)NCc3cccc(C)c3)c3cccc(OC)c32)CC1	127
COc1cccc2c(C(=O)NCc3cccc(C)c3)cn(CCCN3CCC4(CC3)CC(=O)c3ccccc3O4)c12	63
CC(=O)c1cn(CCCNC2Cc3ccccc3C2)c2c(C)cccc12	70
COc1cccc2c(C(=O)NCC(C)C)cn(CCCNCCOc3ccccc3)c12	118
COc1cccc2c(C(=O)C3CC3)cn(CCCN3C4CCC3CC(Oc3ccccc3Cl)C4)c12 (stereo not shown)	130
COc1cccc2c(C(C)=O)cn(CCCN3CCC(C#N)(c4ccccc4)CC3)c12	101
